Columns and labels:
Test in all cases: radiometric filter-binding kinase assay
STK3 (human) = STK3 (human) (UniProt Q13188)
[1] = tested on: RPS6KB1 (human), P23443 [T412E]
[2] = tested on: SGK1 (human), O00141 [S422D]
ROCK2 (rat) = conditions: accession and sequence are those of the human protein
DYRK3 (human) = DYRK3 (human) (UniProt O43781)
BRSK2 (human) = BRSK2 (human) (UniProt Q8IWQ3)
PIM2 (human) = PIM2 (human) (UniProt Q9P1W9)
CSNK2A1 (human) = CSNK2A1 (human) (UniProt P68400)
TBK1 (human) = TBK1 (human) (UniProt Q9UHD2)
Chain of TBK1 (human) (Q9UHD2 whole entry, looked up): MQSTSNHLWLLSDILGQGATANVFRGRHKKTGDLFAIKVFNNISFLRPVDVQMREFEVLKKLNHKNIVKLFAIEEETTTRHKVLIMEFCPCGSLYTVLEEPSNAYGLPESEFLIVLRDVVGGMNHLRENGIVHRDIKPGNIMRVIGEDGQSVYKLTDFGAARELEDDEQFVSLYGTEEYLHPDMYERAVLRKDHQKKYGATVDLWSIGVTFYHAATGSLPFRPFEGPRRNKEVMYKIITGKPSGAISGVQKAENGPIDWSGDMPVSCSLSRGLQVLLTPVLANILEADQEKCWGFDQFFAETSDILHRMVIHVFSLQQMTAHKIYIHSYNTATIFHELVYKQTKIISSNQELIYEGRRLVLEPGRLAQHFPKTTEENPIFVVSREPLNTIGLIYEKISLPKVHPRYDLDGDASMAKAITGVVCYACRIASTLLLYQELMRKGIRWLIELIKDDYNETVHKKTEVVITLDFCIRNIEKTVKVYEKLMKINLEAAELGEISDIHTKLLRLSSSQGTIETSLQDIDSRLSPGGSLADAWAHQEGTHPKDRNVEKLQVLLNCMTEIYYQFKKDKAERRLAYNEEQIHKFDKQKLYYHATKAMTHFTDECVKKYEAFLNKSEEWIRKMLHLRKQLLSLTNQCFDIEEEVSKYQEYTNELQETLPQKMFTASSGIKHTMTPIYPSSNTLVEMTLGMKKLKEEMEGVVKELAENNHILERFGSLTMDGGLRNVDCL

MAPK3 (human) = MAPK3 (human) (UniProt P27361)
PIM3 (human) = PIM3 (human) (UniProt Q86V86)
MAPK12 (human) = MAPK12 (human) (UniProt P53778)
DYRK1A (human) = DYRK1A (human) (UniProt Q13627)
[3] = tested on: AKT1 (human), P31749 [S473D]
RPS6KA1 KD1 KD2 (human) = RPS6KA1 KD1 KD2 (human) (UniProt Q15418)
MAPK14 (human) = MAPK14 (human) (UniProt Q16539)
Chain of MAPK14 (human) (Q16539 whole entry, looked up): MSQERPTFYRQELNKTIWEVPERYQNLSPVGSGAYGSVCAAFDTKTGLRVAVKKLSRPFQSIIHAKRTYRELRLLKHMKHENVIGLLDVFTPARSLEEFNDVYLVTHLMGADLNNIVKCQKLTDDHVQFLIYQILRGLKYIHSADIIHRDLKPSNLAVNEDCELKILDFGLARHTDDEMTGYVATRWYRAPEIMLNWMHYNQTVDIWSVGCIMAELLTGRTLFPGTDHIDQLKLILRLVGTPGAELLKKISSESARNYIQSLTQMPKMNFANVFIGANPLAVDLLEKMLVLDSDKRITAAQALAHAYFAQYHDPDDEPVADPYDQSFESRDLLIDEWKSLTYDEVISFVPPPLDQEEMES

PAK4 (human) = PAK4 (human) (UniProt O96013)
MAPK8 (human) = MAPK8 (human) (UniProt P45983)
RPS6KA3 KD1 KD2 (human) = RPS6KA3 KD1 KD2 (human) (UniProt P51812)
Chain of RPS6KA3 KD1 KD2 (human) (P51812 whole entry, looked up): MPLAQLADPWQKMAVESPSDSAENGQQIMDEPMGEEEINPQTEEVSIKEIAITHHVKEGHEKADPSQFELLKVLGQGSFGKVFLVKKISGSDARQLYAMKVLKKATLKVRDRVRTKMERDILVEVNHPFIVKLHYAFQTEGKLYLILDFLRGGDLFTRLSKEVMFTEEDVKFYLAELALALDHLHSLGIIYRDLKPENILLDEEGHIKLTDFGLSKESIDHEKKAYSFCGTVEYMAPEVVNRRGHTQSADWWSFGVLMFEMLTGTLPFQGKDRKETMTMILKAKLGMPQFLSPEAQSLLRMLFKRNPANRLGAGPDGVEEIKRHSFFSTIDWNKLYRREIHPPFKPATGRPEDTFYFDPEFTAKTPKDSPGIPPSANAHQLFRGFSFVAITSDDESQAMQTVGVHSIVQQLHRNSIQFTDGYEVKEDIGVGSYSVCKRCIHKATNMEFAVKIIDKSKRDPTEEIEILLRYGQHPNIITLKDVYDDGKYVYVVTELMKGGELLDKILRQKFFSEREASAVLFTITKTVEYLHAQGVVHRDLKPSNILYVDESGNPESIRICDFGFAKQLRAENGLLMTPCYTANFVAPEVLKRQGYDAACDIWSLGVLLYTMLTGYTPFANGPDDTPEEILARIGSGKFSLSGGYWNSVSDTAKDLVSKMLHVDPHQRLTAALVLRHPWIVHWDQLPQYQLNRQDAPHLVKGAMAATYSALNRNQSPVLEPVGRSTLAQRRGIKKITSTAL

MKNK2 (human) = MKNK2 (human) (UniProt Q9HBH9)
MAPKAPK5 (human) = MAPKAPK5 (human) (UniProt Q8IW41)
MAPK11 (human) = MAPK11 (human) (UniProt Q15759)
PLK1 (human) = PLK1 (human) (UniProt P53350)
Chain of PLK1 (human) (P53350 whole entry, looked up): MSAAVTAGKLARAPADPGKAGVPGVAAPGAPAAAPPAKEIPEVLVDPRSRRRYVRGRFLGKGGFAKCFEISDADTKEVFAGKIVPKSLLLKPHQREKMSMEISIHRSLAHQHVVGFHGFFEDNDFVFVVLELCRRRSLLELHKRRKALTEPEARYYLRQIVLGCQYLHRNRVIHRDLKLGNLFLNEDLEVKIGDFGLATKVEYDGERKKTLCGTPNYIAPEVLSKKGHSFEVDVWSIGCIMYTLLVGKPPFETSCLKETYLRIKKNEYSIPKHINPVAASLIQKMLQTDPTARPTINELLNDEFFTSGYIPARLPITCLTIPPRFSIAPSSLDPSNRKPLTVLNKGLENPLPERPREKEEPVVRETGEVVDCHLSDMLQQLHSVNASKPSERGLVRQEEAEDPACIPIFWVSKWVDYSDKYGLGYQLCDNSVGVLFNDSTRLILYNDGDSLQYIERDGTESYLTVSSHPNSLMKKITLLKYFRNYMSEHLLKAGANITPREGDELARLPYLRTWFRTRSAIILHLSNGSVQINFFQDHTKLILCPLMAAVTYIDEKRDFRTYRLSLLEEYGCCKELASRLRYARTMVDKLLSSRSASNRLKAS

IKBKB (human) = IKBKB (human) (UniProt O14920)
IRAK4 (human) = IRAK4 (human) (UniProt Q9NWZ3)
IKBKE (human) = IKBKE (human) (UniProt Q14164)
Chain of IKBKE (human) (Q14164 whole entry, looked up): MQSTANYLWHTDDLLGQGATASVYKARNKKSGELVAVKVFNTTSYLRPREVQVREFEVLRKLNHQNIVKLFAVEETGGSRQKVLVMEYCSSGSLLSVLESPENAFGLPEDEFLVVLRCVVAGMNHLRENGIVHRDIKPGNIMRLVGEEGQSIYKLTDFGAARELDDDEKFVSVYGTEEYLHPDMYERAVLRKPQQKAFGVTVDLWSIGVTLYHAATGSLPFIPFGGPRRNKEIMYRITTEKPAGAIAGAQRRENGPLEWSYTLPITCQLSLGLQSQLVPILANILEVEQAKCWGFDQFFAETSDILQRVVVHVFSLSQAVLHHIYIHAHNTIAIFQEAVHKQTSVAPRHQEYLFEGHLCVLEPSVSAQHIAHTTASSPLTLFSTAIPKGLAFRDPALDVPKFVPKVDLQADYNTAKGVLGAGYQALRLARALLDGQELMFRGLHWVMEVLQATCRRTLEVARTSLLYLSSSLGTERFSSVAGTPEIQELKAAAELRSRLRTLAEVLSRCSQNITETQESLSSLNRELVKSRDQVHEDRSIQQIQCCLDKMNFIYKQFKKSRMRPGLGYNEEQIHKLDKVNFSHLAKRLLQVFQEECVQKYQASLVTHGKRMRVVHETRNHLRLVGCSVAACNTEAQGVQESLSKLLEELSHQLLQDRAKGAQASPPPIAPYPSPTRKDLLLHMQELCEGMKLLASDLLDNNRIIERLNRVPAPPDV

PIM1 (human) = PIM1 (human) (UniProt P11309)
EPHB3 (human) = EPHB3 (human) (UniProt P54753)
Chain of EPHB3 (human) (P54753 whole entry, looked up): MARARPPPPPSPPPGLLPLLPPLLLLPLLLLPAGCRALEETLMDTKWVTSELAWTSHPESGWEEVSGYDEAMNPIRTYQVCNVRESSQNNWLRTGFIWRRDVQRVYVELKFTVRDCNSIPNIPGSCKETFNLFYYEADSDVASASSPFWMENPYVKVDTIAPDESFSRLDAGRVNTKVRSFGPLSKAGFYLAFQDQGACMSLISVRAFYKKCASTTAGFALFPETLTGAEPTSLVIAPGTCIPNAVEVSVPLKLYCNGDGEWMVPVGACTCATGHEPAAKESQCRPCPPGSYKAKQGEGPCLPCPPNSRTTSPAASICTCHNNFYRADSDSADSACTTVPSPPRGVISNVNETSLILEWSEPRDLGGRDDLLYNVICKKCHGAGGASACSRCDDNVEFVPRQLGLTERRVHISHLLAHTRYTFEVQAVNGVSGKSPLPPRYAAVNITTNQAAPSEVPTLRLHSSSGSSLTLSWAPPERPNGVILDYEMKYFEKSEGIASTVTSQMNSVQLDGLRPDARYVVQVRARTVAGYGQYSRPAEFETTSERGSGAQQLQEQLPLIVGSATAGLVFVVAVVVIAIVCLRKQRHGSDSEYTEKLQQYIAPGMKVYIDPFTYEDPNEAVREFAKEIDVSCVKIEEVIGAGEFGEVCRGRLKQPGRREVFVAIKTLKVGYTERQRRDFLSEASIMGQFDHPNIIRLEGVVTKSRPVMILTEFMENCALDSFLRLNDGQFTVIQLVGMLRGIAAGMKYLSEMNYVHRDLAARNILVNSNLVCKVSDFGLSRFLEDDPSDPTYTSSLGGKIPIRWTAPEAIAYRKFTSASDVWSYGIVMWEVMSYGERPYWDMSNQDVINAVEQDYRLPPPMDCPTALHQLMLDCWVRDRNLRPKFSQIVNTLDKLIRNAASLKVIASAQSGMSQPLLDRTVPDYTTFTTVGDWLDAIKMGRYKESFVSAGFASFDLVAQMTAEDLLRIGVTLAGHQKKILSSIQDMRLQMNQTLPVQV

MAPKAPK3 (human) = MAPKAPK3 (human) (UniProt Q16644)
MAP3K11 (human) = MAP3K11 (human) (UniProt Q16584)
NTRK1 (human) = NTRK1 (human) (UniProt P04629)
DAPK1 (human) = DAPK1 (human) (UniProt P53355)
MAP3K7 TAB1 (human) = MAP3K7 TAB1 (human) (UniProt Q15750+O43318)
CLK2 (human) = CLK2 (human) (UniProt P49760)

Chain of CSNK2A1 (human) (P68400 whole entry, looked up): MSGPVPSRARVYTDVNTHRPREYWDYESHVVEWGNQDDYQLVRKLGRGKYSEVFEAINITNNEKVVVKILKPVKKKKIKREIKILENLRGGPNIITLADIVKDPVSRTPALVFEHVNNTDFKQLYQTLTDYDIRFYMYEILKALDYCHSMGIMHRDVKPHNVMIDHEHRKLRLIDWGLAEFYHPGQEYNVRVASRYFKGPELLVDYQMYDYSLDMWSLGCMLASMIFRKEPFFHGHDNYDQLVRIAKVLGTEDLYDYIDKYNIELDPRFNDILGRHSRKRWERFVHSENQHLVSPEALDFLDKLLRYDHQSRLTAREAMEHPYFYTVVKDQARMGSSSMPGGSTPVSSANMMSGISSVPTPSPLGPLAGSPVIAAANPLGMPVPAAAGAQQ
Chain of PIM2 (human) (Q9P1W9 whole entry, looked up): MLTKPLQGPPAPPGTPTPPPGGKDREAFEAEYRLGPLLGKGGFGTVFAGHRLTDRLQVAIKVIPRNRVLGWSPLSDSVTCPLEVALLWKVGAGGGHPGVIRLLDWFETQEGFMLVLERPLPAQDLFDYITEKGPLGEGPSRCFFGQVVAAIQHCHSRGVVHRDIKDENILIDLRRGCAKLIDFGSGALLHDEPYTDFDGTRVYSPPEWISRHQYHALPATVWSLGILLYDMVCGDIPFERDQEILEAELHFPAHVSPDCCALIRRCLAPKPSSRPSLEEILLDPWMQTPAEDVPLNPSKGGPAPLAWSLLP

O=C(O)c1cc(N=Nc2ccc(S(=O)(=O)Nc3ccccn3)cc2)ccc1O
residual activity (STK3 (human); compound 1.0 µM): 94% | residual activity (STK3 (human); compound 10.0 µM): 92% | residual activity ([1]; compound 1.0 µM): 80% | residual activity ([1]; compound 10.0 µM): 90% | residual activity ([2]; compound 1.0 µM): 76% | residual activity ([2]; compound 10.0 µM): 54% | residual activity (ROCK2 (rat); compound 1.0 µM): 93% | residual activity (ROCK2 (rat); compound 10.0 µM): 90% | residual activity (DYRK3 (human); compound 1.0 µM): 89% | residual activity (DYRK3 (human); compound 10.0 µM): 77% | residual activity (BRSK2 (human); compound 1.0 µM): 106% | residual activity (BRSK2 (human); compound 10.0 µM): 87% | residual activity (PIM2 (human); compound 1.0 µM): 98% | residual activity (PIM2 (human); compound 10.0 µM): 77% | residual activity (CSNK2A1 (human); compound 1.0 µM): 83% | residual activity (CSNK2A1 (human); compound 10.0 µM): 29% | residual activity (TBK1 (human); compound 1.0 µM): 111% | residual activity (TBK1 (human); compound 10.0 µM): 99% | residual activity (MAPK3 (human); compound 1.0 µM): 103% | residual activity (MAPK3 (human); compound 10.0 µM): 110% | residual activity (PIM3 (human); compound 1.0 µM): 63% | residual activity (PIM3 (human); compound 10.0 µM): 18% | residual activity (MAPK12 (human); compound 1.0 µM): 97% | residual activity (MAPK12 (human); compound 10.0 µM): 100% | residual activity (DYRK1A (human); compound 1.0 µM): 94% | residual activity (DYRK1A (human); compound 10.0 µM): 85% | residual activity ([3]; compound 1.0 µM): 112% | residual activity ([3]; compound 10.0 µM): 106% | residual activity (RPS6KA1 KD1 KD2 (human); compound 1.0 µM): 129% | residual activity (RPS6KA1 KD1 KD2 (human); compound 10.0 µM): 122% | residual activity (MAPK14 (human); compound 1.0 µM): 105% | residual activity (MAPK14 (human); compound 10.0 µM): 101% | residual activity (PAK4 (human); compound 1.0 µM): 89% | residual activity (PAK4 (human); compound 10.0 µM): 76% | residual activity (MAPK8 (human); compound 1.0 µM): 96% | residual activity (MAPK8 (human); compound 10.0 µM): 96% | residual activity (RPS6KA3 KD1 KD2 (human); compound 1.0 µM): 97% | residual activity (RPS6KA3 KD1 KD2 (human); compound 10.0 µM): 91% | residual activity (MKNK2 (human); compound 1.0 µM): 76% | residual activity (MKNK2 (human); compound 10.0 µM): 99% | residual activity (MAPKAPK5 (human); compound 1.0 µM): 92% | residual activity (MAPKAPK5 (human); compound 10.0 µM): 90% | residual activity (MAPK11 (human); compound 1.0 µM): 113% | residual activity (MAPK11 (human); compound 10.0 µM): 109% | residual activity (PLK1 (human); compound 1.0 µM): 106% | residual activity (PLK1 (human); compound 10.0 µM): 102% | residual activity (IKBKB (human); compound 1.0 µM): 107% | residual activity (IKBKB (human); compound 10.0 µM): 89% | residual activity (IRAK4 (human); compound 1.0 µM): 104% | residual activity (IRAK4 (human); compound 10.0 µM): 97% | residual activity (IKBKE (human); compound 1.0 µM): 92% | residual activity (IKBKE (human); compound 10.0 µM): 112% | residual activity (PIM1 (human); compound 1.0 µM): 88% | residual activity (PIM1 (human); compound 10.0 µM): 44% | residual activity (EPHB3 (human); compound 1.0 µM): 102% | residual activity (EPHB3 (human); compound 10.0 µM): 118% | residual activity (MAPKAPK3 (human); compound 1.0 µM): 116% | residual activity (MAPKAPK3 (human); compound 10.0 µM): 85% | residual activity (MAP3K11 (human); compound 10.0 µM): 71%

Cc1cccc(-c2nn(C(=S)Nc3ccccc3)cc2-c2ccnc3ccccc23)n1
residual activity (STK3 (human); compound 0.1 µM): 107% | residual activity (STK3 (human); compound 1.0 µM): 100% | residual activity ([1]; compound 0.1 µM): 108% | residual activity ([1]; compound 1.0 µM): 105% | residual activity ([2]; compound 0.1 µM): 107% | residual activity ([2]; compound 1.0 µM): 103% | residual activity (ROCK2 (rat); compound 0.1 µM): 96% | residual activity (ROCK2 (rat); compound 1.0 µM): 104% | residual activity (NTRK1 (human); compound 0.1 µM): 118% | residual activity (NTRK1 (human); compound 1.0 µM): 99% | residual activity (DYRK3 (human); compound 0.1 µM): 102% | residual activity (DYRK3 (human); compound 1.0 µM): 93% | residual activity (BRSK2 (human); compound 0.1 µM): 117% | residual activity (BRSK2 (human); compound 1.0 µM): 92% | residual activity (PIM2 (human); compound 0.1 µM): 97% | residual activity (PIM2 (human); compound 1.0 µM): 94% | residual activity (CSNK2A1 (human); compound 0.1 µM): 102% | residual activity (CSNK2A1 (human); compound 1.0 µM): 104% | residual activity (TBK1 (human); compound 0.1 µM): 102% | residual activity (TBK1 (human); compound 1.0 µM): 106% | residual activity (MAPK3 (human); compound 0.1 µM): 105% | residual activity (MAPK3 (human); compound 1.0 µM): 100% | residual activity (PIM3 (human); compound 0.1 µM): 91% | residual activity (PIM3 (human); compound 1.0 µM): 117% | residual activity (MAPK12 (human); compound 0.1 µM): 102% | residual activity (MAPK12 (human); compound 1.0 µM): 88% | residual activity (DYRK1A (human); compound 0.1 µM): 109% | residual activity (DYRK1A (human); compound 1.0 µM): 104% | residual activity (DAPK1 (human); compound 0.1 µM): 94% | residual activity (DAPK1 (human); compound 1.0 µM): 90% | residual activity ([3]; compound 0.1 µM): 102% | residual activity ([3]; compound 1.0 µM): 106% | residual activity (MAP3K7 TAB1 (human); compound 0.1 µM): 99% | residual activity (MAP3K7 TAB1 (human); compound 1.0 µM): 81% | residual activity (RPS6KA1 KD1 KD2 (human); compound 0.1 µM): 110% | residual activity (RPS6KA1 KD1 KD2 (human); compound 1.0 µM): 95% | residual activity (MAPK14 (human); compound 0.1 µM): 56% | residual activity (MAPK14 (human); compound 1.0 µM): 16% | residual activity (PAK4 (human); compound 0.1 µM): 89% | residual activity (PAK4 (human); compound 1.0 µM): 93% | residual activity (MAPK8 (human); compound 0.1 µM): 111% | residual activity (MAPK8 (human); compound 1.0 µM): 101% | residual activity (RPS6KA3 KD1 KD2 (human); compound 0.1 µM): 126% | residual activity (RPS6KA3 KD1 KD2 (human); compound 1.0 µM): 109% | residual activity (MKNK2 (human); compound 0.1 µM): 81% | residual activity (MKNK2 (human); compound 1.0 µM): 91% | residual activity (MAPKAPK5 (human); compound 0.1 µM): 113% | residual activity (MAPKAPK5 (human); compound 1.0 µM): 99% | residual activity (MAPK11 (human); compound 0.1 µM): 89% | residual activity (MAPK11 (human); compound 1.0 µM): 61% | residual activity (PLK1 (human); compound 0.1 µM): 99% | residual activity (PLK1 (human); compound 1.0 µM): 106% | residual activity (IKBKB (human); compound 0.1 µM): 107% | residual activity (IKBKB (human); compound 1.0 µM): 100% | residual activity (CLK2 (human); compound 0.1 µM): 106% | residual activity (CLK2 (human); compound 1.0 µM): 98% | residual activity (IRAK4 (human); compound 0.1 µM): 101% | residual activity (IRAK4 (human); compound 1.0 µM): 99% | residual activity (IKBKE (human); compound 0.1 µM): 112% | residual activity (IKBKE (human); compound 1.0 µM): 106% | residual activity (PIM1 (human); compound 0.1 µM): 105% | residual activity (PIM1 (human); compound 1.0 µM): 97% | residual activity (EPHB3 (human); compound 0.1 µM): 112% | residual activity (EPHB3 (human); compound 1.0 µM): 104% | residual activity (MAPKAPK3 (human); compound 0.1 µM): 107% | residual activity (MAPKAPK3 (human); compound 1.0 µM): 97% | residual activity (MAP3K11 (human); compound 0.1 µM): 104% | residual activity (MAP3K11 (human); compound 1.0 µM): 107%
